# Values quoted from earlier work in patent US11441198B2 (priority 2016, dated 2022).
# Key:
# [1] = test system: influenza virus; details: double-blind randomized placebo-controlled trial
# [2] = test system: influenza viruses
Compound,symptoms [1],antiviral activity against influenza viruses [2]
CC(=O)Oc1ccccc1C(=O)Nc1ncc([N+](=O)[O-])s1 [Nitazoxanide],associated with improvement in symptoms,
COc1c(C)c2c(c(O)c1C/C=C(\C)CCC(=O)O)C(=O)OC2 [mycophenolic acid],,has antiviral activity
